Results: PubChem BioAssay AID1259407 (Chemical Carcinogenesis Research Information System (CCRIS), 2018)
Calls of active or inactive are those of the source. No rule for the calls is given here.

System: CCRIS mutagenicity, Ames/micronucleus/aberration tests
Assay: CCRIS mutagenicity studies
Conditions: Test System: AMES SALMONELLA TYPHIMURIUM, Metabolic Activation: NONE, Method: PREINCUBATION

Measured: mutagenic call

Cc1c2ccccc2c(C)c2c3c(ccc12)C(=O)C(=O)C=C3
inactive: Strain/Indicator: TA97A inactive; negative | Strain/Indicator: TA98 inactive; negative | Strain/Indicator: TA100 inactive; negative | Strain/Indicator: TA102 inactive; negative | Strain/Indicator: TA104 inactive; negative
